The record followed here is patent publication US10407445B2, “Hepatitis C virus inhibitors” (ENANTA PHARMACEUTICALS, INC., priority 2013, dated 2019).

Assay type in all cases: cell-based
In one assay the test system is HCV GT 1a replicon. Put plainly: HCV replicon assay, stable GT 1a replicon (Renilla luciferase). Particulars: Hepatitis C virus, GT1A; HCV GT 1a replicon, 72 h; read-out: EC50 1a. On the procedure: (§1) The activity of compounds was determined against HCV replicons representing genotypes (GT) 1a, 1b, 2a, and 3a. To generate stable Huh-7.5-based cell lines, HCV replicons were engineered to express the Renilla luciferase reporter (hRluc) fused to the neomycin phosphotransferase (Neo) gene. GT2a and GT3a HCV replicons were based on the JFH-1 subgenomic replicon (Kato et al. 2003 Gastroenterology, 125:1808-1817), in which the NS5A gene was replaced with that of strains J6 and S52 (GT2a and G3a, respectively). The activity of compounds against GT1a replicons encoding NS5A mutations (M28T, Q30R, L31M, Y93C, and Y93H) was also determined in a transient replication assay. The parental GT1a and GT2a replicons (pH/SG-Neo(L+I) and pSG-Neo-JFH1, respectively) were licensed from Apath LLC (Saint Louis, Mo.). The parental GT 1b replicon (pFKi389lucubineo_3_3′_ET) was licensed from ReBLikon GmbH (Germany). HCV replicons were constructed by standard molecular biology techniques described below. All replicon constructs were verified by restriction enzyme digestion and DNA sequencing.
pH/SG-Neo(L+I) was modified to add the firefly luciferase reporter gene and additional adaptive mutations by replacing the pH/SG-Neo(L+I) NS3-NS5A coding region with the corresponding sequence of pH77-S, creating pH/SG-lucubineo-H77S as described (Borawski J et al. 2009, J Virol 83: 10058-10074). Subsequently, the firefly luciferase-Neo cassette was replaced with the hRluc-Neo cassette. To create a unique cloning site, the NotI restriction site in NS5B was removed using QuickChange II XL Site-Directed Mutagenesis Kit (Agilent) and the following primers: NotI KO Fwd 5′-CTCAAACTCACTCCAATAGCTGCCGCTGGCCGGCTGGAC-3′(G→T mutation removing NotI site underlined) (SEQ. ID No. 1) and NotI KO Rev 5′-GTCCAGCGGGCCAGCGGCAGCTATTGGAGTGAGTTTGAG-3′(C→A mutation removing NotI site underlined) (SEQ. ID No. 2). The resulting vector, pH/SG-lucubineo-H775-NotIKO, was sequenced to confirm the NS5B gene. The hRluc-Neo cassette was PCR amplified from pF9 cytomegalovirus (CMV) hRluc-Neo Flexi(R) (Promega) using Accuprime Super Mix II (Invitrogen) and the following primers, which introduce restriction sites: […]
The amplification product was subcloned into pCR2.1-TOPO (Invitrogen). The resulting plasmid was digested with AscI and NotI, and the excised hRluc-Neo fragment was ligated using the Promega Rapid Ligation Kit (Promega) into pH/SG-lucubineo-H775-NotIKO digested with the same enzymes.
Stable HCV replicon cell lines were grown in complete media (Dulbecco's modified Eagle medium [DMEM], 2 mM L-glutamine, 0.1 mM essential amino acids, 1 mM sodium pyruvate, 10% heat inactivated fetal bovine serum) with the addition 500 μg/ml […] (G418). Huh7-lunet cells were maintained in the same medium without the addition of G418. Cells were routinely passaged at a dilution of 1:4 two times a week. The assay medium for both luciferase reporter HCV replicon and cytotoxicity assays used phenol red-free DMEM and lacked G418. For each stable replicon assay, a sixteen point half-log dilution series of compound was stamped (0.5 ul compound per well) into three replica 384-well plates, to which cells were added directly (4000 cells/well). For the transient replication assay, Huh7-lunet cells in ice-cold phosphate buffered saline (PBS) were electroporated (BioRad electroporator; 950 uF, 270V) with 10 ug purified in vitro transcribed HCV replicon RNA, followed by resuspension in complete media and plating (8000 cells/well) into compound stamped 384-well plates. Luciferase activity of compound-treated cells was measured relative to DMSO-treated cells after 72 h incubation using RENILLA-GLO™ Luciferase Assay (Promega). Cytotoxicity (CC50) in the GT1b replicon cell line was analyzed using CELL TITER-GLO™ (Promega). […]

A further assay relates to HCV GT 1b replicon. Put plainly: HCV replicon assay, stable GT 1b replicon (Renilla luciferase). Particulars: Hepatitis C virus, GT1B, 72 h. On the procedure: as §1
The hRluc-Neo cassette was PCR amplified from pF9 cytomegalovirus (CMV) hRluc-Neo Flexi(R) (Promega) using Accuprime Super Mix II (Invitrogen) and the following primers, which introduce restriction sites: […]
The amplification product was subcloned into pCR2.1-TOPO (Invitrogen). The resulting plasmid was digested with AscI and NotI, and the excised hRluc-Neo fragment was ligated using the Roche Quick Ligation Kit (Roche) into pFKi389lucubineo_3_3′_ET digested with the same enzymes.
Stable HCV replicon cell lines were grown in complete media (Dulbecco's modified Eagle medium [DMEM], 2 mM L-glutamine, 0.1 mM essential amino acids, 1 mM sodium pyruvate, 10% heat inactivated fetal bovine serum) with the addition 500 μg/ml […] (G418). Huh7-lunet cells were maintained in the same medium without the addition of G418. Cells were routinely passaged at a dilution of 1:4 two times a week. The assay medium for both luciferase reporter HCV replicon and cytotoxicity assays used phenol red-free DMEM and lacked G418. For each stable replicon assay, a sixteen point half-log dilution series of compound was stamped (0.5 ul compound per well) into three replica 384-well plates, to which cells were added directly (4000 cells/well). For the transient replication assay, Huh7-lunet cells in ice-cold phosphate buffered saline (PBS) were electroporated (BioRad electroporator; 950 uF, 270V) with 10 ug purified in vitro transcribed HCV replicon RNA, followed by resuspension in complete media and plating (8000 cells/well) into compound stamped 384-well plates. Luciferase activity of compound-treated cells was measured relative to DMSO-treated cells after 72 h incubation using RENILLA-GLO™ Luciferase Assay (Promega). Cytotoxicity (CC50) in the GT1b replicon cell line was analyzed using CELL TITER-GLO™ (Promega).
The compounds of the present invention can be effective against the HCV 1b genotype. It should also be understood that the compounds of the present invention can inhibit multiple genotypes of HCV. In one embodiment compound of the present invention are active against the 1a, 1b, 2a, 2b, 3a, 4a, and 5a genotypes. In another embodiment compound of the present invention are active against the HCV resistant mutants. […] EC50s are in pM against HCV GT 1a and GT 1b; and nM against GT 2a-J6, GT 3a and GT1a resistant variants (M28T, Q30R, L31V, Y93C and Y93H).
Background: Replicon systems follow genome replication, usually without infectious particles.

For assay [1], the system named is GT1a replicon encoding NS5A mutation M28T. Put plainly: Transient replication assay, GT1a replicon with NS5A mutation M28T. Particulars: Hepatitis C virus, read-out: EC50 1a M28T.
In assay [2] the test system is GT1a replicon encoding NS5A mutation Q30R. Put plainly: Transient replication assay, GT1a replicon with NS5A mutation Q30R. Particulars: Hepatitis C virus, read-out: EC50 1a Q30R.
Assay [3] deals with GT1a replicon encoding NS5A mutation L31V. Kind of assay: Transient replication assay, GT1a replicon with NS5A mutation L31V. Particulars: Hepatitis C virus, read-out: EC50 1a L31V.
For assay [4], the system named is GT1a replicon encoding NS5A mutation Y93C. Kind of assay: Transient replication assay, GT1a replicon with NS5A mutation Y93C. Particulars: Hepatitis C virus, read-out: EC50 1a Y93C.
The test system of assay [5] is GT1a replicon encoding NS5A mutation Y93H. Put plainly: Transient replication assay, GT1a replicon with NS5A mutation Y93H. Particulars: Hepatitis C virus, read-out: EC50 1a Y93H.

Consider `COC(=O)N[C@H](C(=O)N1[C@H](c2nc3ccc4cc(-c5ccc(-c6cnc([C@@H]7C[C@@]8(CCCOC8)CN7C(=O)[C@@H](NC(=O)OC)C7C[C@@H](C)O[C@H](C)C7)[nH]6)cc5)ccc4c3[nH]2)C[C@@H]2CCC[C@@H]21)C(C)C` (some centres unmarked) [Compound 43], for which the EC50 is 0.015 nM with HCV GT 1a replicon; 0.023 nM with HCV GT 1b replicon; 0.04 nM in assay [1]; 0.03 nM in assay [2]; 0.06 nM in assay [3]; 0.04 nM in assay [4]. Further, in assay [5], the EC50 came to 2 nM.

With `COC(=O)N[C@H](C(=O)N1[C@H](c2ncc(-c3ccc(-c4ccc(-c5cnc([C@@H]6C[C@@]7(CCCOC7)CN6C(=O)[C@@H](NC(=O)OC)C6C[C@@H](C)O[C@H](C)C6)[nH]5)cc4)cc3)[nH]2)C[C@@H]2CCC[C@@H]21)C(C)C` (some centres unmarked) [Compound 45], the EC50 with HCV GT 1a replicon came out at 0.023 nM; in the assay with HCV GT 1b replicon it was 0.028 nM; in assay [1], 0.04 nM; in assay [2], 0.03 nM; in assay [3] it was 0.06 nM; in assay [4], 0.3 nM. The half-maximal effective concentration (EC50) in assay [5] was determined as 8 nM.

Broadly, the EC50 is the concentration needed to bring the measured effect to its halfway point.
